Columns and labels:
Assay in all cases: KINOMEscan
Assay type in all cases: binding
MET = molecular target: T1, MET (Homo sapiens, UniProt P08581)
T1 construct: purchased Eurofins DiscoverX KINOMEscan
Outline: (§1)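 Binding reactions proceed for 1 h at room temperature. Kinase not bound by compound is captured on immobilized affinity ligand and quantified by qPCR; Kd is fitted over 12 half-log concentrations, top 33 μM.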

TGFBR2 = molecular target: T2, TGFBR2 (Homo sapiens, UniProt P37173)
T2 construct: purchased Eurofins DiscoverX KINOMEscan
Outline: (§2)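 Read-out is qPCR of kinase not bound to the test compound, recovered by capture on an immobilized affinity ligand after a 1 h room-temperature binding step. Dissociation constants came from 12 half-log dilutions starting at 33 μM.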

DRAK2 = molecular target: T3, DRAK2 (Homo sapiens, UniProt O94768)
T3 construct: purchased Eurofins DiscoverX KINOMEscan
Outline: as §1

PYK2 = molecular target: T4, PYK2 (Homo sapiens, UniProt Q14289)
T4 construct: purchased Eurofins DiscoverX KINOMEscan
Outline: as §1

p38-σ = molecular target: T5, p38-σ (Homo sapiens, UniProt O15264)
T5 construct: purchased Eurofins DiscoverX KINOMEscan
Outline: as §1

CDK7 = molecular target: T6, CDK7 (Homo sapiens, UniProt P50613)
T6 construct: purchased Eurofins DiscoverX KINOMEscan
Outline: as §1

ABL1 (Y253F)-P = molecular target: T7, ABL1 (Y253F)-P (Homo sapiens, UniProt P00519, Y253F)
T7 construct: purchased Eurofins DiscoverX KINOMEscan
Outline: as §1

[1] = molecular target: T8, RSK1 (Kin. Dom.2-C-term.) (Homo sapiens, UniProt Q15418)
T8 construct: RSK1 (Kin. Dom.2-C-term.); purchased Eurofins DiscoverX KINOMEscan
Outline: as §1

TSSK3 = molecular target: T9, TSSK3 (Homo sapiens, UniProt Q96PN8)
T9 construct: purchased Eurofins DiscoverX KINOMEscan
Outline: as §1

TTK = molecular target: T10, TTK (Homo sapiens, UniProt P33981)
T10 construct: purchased Eurofins DiscoverX KINOMEscan
Outline: as §1

ABL1 (Q252H)-non-P = molecular target: T11, ABL1 (Q252H)-non-P (Homo sapiens, UniProt P00519, Q252H)
T11 construct: purchased Eurofins DiscoverX KINOMEscan
Outline: as §1

FLT3 (K663Q) = molecular target: T12, FLT3 (K663Q) (Homo sapiens, UniProt P36888, K663Q)
T12 construct: purchased Eurofins DiscoverX KINOMEscan
Outline: as §1

MEK6 = molecular target: T13, MEK6 (Homo sapiens, UniProt P52564)
T13 construct: purchased Eurofins DiscoverX KINOMEscan
Outline: as §2

CSF1R-autoinhibited = molecular target: T14, CSF1R-autoinhibited (Homo sapiens, UniProt P07333)
T14 construct: purchased Eurofins DiscoverX KINOMEscan
Outline: as §1

SGK = molecular target: T15, SGK (Homo sapiens, UniProt O00141)
T15 construct: purchased Eurofins DiscoverX KINOMEscan
Outline: as §1

CAMKK1 = molecular target: T16, CAMKK1 (Homo sapiens, UniProt Q8N5S9)
T16 construct: purchased Eurofins DiscoverX KINOMEscan
Outline: as §1

CAMK4 = molecular target: T17, CAMK4 (Homo sapiens, UniProt Q16566)
T17 construct: purchased Eurofins DiscoverX KINOMEscan
Outline: as §1

CIT = molecular target: T18, CIT (Homo sapiens, UniProt O14578)
T18 construct: purchased Eurofins DiscoverX KINOMEscan
Outline: as §1

JAK1 (JH1domain-cat.) = molecular target: T19, JAK1 (JH1domain-cat.) (Homo sapiens, UniProt P23458)
T19 construct: JAK1 (JH1domain-cat.); purchased Eurofins DiscoverX KINOMEscan
Outline: as §2

YSK1 = molecular target: T20, YSK1 (Homo sapiens, UniProt O00506)
T20 construct: purchased Eurofins DiscoverX KINOMEscan
Outline: as §1

PLK1 = molecular target: T21, PLK1 (Homo sapiens, UniProt P53350)
T21 construct: purchased Eurofins DiscoverX KINOMEscan
Outline: as §1

MLCK = molecular target: T22, MLCK (Homo sapiens, UniProt Q32MK0)
T22 construct: purchased Eurofins DiscoverX KINOMEscan
Outline: as §1

RET (V804M) = molecular target: T23, RET (V804M) (Homo sapiens, UniProt P07949, V804M)
T23 construct: purchased Eurofins DiscoverX KINOMEscan
Outline: as §1

FLT3 (D835Y) = molecular target: T24, FLT3 (D835Y) (Homo sapiens, UniProt P36888, D835Y)
T24 construct: purchased Eurofins DiscoverX KINOMEscan
Outline: as §1

PRKX = molecular target: T25, PRKX (Homo sapiens, UniProt P51817)
T25 construct: purchased Eurofins DiscoverX KINOMEscan
Outline: as §1

ABL1 (Q252H)-P = molecular target: T26, ABL1 (Q252H)-P (Homo sapiens, UniProt P00519, Q252H)
T26 construct: purchased Eurofins DiscoverX KINOMEscan
Outline: as §1

NEK11 = molecular target: T27, NEK11 (Homo sapiens, UniProt Q8NG66)
T27 construct: purchased Eurofins DiscoverX KINOMEscan
Outline: as §2

SLK = molecular target: T28, SLK (Homo sapiens, UniProt Q9H2G2)
T28 construct: purchased Eurofins DiscoverX KINOMEscan
Outline: as §1

PFTAIRE2 = molecular target: T29, PFTAIRE2 (Homo sapiens, UniProt Q96Q40)
T29 construct: purchased Eurofins DiscoverX KINOMEscan
Outline: as §2

ERN1 = molecular target: T30, ERN1 (Homo sapiens, UniProt O75460)
T30 construct: purchased Eurofins DiscoverX KINOMEscan
Outline: as §1

TLK1 = molecular target: T31, TLK1 (Homo sapiens, UniProt Q9UKI8)
T31 construct: purchased Eurofins DiscoverX KINOMEscan
Outline: as §1

LATS1 = molecular target: T32, LATS1 (Homo sapiens, UniProt O95835)
T32 construct: purchased Eurofins DiscoverX KINOMEscan
Outline: as §1

MLK2 = molecular target: T33, MLK2 (Homo sapiens, UniProt Q02779)
T33 construct: purchased Eurofins DiscoverX KINOMEscan
Outline: as §1

NDR2 = molecular target: T34, NDR2 (Homo sapiens, UniProt Q9Y2H1)
T34 construct: purchased Eurofins DiscoverX KINOMEscan
Outline: as §2

NEK4 = molecular target: T35, NEK4 (Homo sapiens, UniProt P51957)
T35 construct: purchased Eurofins DiscoverX KINOMEscan
Outline: as §1

LIMK1 = molecular target: T36, LIMK1 (Homo sapiens, UniProt P53667)
T36 construct: purchased Eurofins DiscoverX KINOMEscan
Outline: as §1

CAMK1D = molecular target: T37, CAMK1D (Homo sapiens, UniProt Q8IU85)
T37 construct: purchased Eurofins DiscoverX KINOMEscan
Outline: as §1

BRK = molecular target: T38, BRK (Homo sapiens, UniProt Q13882)
T38 construct: purchased Eurofins DiscoverX KINOMEscan
Outline: as §1

LOK = molecular target: T39, LOK (Homo sapiens, UniProt O94804)
T39 construct: purchased Eurofins DiscoverX KINOMEscan
Outline: as §1

T3 sequence (O94768 whole entry): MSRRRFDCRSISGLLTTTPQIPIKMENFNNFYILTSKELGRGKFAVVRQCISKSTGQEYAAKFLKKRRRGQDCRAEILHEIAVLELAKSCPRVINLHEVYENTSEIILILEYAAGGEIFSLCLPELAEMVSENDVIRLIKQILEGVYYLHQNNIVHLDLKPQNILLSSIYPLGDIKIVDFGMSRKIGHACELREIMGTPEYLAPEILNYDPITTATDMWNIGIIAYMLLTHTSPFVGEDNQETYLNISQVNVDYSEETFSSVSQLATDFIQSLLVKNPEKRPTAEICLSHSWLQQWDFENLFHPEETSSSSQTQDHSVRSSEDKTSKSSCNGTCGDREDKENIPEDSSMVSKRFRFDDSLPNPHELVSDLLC
T21 sequence (P53350 whole entry): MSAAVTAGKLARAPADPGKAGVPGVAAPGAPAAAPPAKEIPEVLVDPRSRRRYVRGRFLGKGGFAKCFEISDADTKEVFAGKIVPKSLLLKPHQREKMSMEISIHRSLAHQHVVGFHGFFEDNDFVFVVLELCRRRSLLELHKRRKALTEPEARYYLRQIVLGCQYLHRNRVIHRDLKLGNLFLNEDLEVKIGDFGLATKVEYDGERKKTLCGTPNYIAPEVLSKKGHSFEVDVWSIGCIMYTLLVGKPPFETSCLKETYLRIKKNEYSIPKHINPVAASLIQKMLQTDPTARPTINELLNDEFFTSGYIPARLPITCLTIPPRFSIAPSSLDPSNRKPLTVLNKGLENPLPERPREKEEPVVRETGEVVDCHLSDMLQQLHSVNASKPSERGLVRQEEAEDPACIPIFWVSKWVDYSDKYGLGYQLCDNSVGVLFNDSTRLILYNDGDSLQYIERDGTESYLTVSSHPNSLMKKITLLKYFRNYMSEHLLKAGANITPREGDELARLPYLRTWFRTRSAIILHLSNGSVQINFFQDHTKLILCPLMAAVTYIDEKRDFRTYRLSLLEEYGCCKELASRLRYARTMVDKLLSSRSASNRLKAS
T33 sequence (Q02779 whole entry): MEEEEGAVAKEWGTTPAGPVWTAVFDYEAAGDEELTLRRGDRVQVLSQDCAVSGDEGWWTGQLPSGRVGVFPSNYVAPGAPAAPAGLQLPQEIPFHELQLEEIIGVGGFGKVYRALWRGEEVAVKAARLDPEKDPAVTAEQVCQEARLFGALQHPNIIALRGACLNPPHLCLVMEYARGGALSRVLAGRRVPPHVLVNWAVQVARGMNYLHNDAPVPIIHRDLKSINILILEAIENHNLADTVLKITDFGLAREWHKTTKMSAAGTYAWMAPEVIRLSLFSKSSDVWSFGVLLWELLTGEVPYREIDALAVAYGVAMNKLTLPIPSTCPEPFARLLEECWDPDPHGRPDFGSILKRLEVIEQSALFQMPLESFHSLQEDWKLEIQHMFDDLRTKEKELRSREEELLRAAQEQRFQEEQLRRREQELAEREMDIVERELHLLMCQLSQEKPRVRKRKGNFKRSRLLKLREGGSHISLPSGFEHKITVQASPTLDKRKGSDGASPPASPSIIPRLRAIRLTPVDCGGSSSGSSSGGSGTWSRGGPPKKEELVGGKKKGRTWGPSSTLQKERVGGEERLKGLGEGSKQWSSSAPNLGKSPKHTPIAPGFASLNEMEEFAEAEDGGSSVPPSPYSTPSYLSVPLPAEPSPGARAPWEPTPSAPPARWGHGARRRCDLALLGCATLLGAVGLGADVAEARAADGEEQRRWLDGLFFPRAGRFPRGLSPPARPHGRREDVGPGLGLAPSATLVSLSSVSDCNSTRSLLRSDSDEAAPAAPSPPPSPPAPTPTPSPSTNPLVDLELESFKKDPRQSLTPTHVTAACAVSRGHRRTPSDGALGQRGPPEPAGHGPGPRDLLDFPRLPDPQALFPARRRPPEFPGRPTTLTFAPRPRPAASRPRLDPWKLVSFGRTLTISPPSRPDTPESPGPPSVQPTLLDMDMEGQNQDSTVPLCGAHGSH
T9 sequence (Q96PN8 whole entry): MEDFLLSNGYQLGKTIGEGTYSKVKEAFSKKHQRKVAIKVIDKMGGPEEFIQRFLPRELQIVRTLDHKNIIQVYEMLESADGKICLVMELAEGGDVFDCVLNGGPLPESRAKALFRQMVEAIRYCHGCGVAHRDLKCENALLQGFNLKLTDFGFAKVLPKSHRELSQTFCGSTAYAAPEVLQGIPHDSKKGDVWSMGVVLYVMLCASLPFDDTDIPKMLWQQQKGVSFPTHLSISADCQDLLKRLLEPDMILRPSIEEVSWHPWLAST
T34 sequence (Q9Y2H1 whole entry): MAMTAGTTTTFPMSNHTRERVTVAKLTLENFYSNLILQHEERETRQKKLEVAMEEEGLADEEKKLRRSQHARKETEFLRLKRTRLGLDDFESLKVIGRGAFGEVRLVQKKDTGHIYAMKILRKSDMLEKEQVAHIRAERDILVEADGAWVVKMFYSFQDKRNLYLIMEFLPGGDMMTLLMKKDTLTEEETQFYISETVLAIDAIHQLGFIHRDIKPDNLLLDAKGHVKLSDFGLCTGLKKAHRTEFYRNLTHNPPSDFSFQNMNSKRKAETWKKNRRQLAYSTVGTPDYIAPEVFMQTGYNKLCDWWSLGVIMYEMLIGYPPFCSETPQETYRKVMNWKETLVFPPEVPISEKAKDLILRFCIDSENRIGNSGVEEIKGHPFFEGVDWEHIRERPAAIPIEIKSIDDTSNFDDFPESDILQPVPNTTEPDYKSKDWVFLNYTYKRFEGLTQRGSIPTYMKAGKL
T13 sequence (P52564 whole entry): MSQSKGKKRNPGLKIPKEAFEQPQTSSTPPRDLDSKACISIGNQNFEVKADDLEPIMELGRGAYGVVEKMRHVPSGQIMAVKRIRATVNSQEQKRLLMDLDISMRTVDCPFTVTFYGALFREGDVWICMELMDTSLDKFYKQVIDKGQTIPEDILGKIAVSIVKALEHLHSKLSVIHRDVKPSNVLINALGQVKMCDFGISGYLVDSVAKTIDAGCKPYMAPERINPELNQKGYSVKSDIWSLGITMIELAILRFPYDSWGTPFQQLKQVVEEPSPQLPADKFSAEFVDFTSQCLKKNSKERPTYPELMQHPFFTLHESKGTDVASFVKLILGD
T17 sequence (Q16566 whole entry): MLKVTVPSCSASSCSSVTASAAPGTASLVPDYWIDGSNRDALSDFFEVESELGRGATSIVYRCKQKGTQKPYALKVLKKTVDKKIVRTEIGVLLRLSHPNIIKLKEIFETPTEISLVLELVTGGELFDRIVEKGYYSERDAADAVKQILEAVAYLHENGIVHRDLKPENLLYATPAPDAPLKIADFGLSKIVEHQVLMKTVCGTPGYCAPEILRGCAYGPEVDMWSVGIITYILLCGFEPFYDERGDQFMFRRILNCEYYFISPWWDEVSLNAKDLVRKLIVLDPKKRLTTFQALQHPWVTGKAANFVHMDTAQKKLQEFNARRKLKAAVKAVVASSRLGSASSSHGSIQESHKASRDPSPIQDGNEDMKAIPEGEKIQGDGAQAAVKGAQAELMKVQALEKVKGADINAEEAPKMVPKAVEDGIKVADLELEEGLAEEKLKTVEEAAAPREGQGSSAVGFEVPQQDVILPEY
T38 sequence (Q13882 whole entry): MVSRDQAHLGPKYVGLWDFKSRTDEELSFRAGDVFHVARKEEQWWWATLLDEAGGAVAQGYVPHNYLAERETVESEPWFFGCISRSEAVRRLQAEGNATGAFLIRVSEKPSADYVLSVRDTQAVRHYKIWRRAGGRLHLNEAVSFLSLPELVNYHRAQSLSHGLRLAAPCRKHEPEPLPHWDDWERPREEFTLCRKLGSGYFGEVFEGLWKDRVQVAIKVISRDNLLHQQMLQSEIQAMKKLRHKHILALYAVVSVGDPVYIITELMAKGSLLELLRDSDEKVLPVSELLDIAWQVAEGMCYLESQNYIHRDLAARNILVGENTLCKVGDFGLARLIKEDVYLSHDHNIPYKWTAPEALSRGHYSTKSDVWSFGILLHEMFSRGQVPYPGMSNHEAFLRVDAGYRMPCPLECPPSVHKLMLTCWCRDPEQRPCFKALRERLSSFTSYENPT
T30 sequence (O75460 19-977): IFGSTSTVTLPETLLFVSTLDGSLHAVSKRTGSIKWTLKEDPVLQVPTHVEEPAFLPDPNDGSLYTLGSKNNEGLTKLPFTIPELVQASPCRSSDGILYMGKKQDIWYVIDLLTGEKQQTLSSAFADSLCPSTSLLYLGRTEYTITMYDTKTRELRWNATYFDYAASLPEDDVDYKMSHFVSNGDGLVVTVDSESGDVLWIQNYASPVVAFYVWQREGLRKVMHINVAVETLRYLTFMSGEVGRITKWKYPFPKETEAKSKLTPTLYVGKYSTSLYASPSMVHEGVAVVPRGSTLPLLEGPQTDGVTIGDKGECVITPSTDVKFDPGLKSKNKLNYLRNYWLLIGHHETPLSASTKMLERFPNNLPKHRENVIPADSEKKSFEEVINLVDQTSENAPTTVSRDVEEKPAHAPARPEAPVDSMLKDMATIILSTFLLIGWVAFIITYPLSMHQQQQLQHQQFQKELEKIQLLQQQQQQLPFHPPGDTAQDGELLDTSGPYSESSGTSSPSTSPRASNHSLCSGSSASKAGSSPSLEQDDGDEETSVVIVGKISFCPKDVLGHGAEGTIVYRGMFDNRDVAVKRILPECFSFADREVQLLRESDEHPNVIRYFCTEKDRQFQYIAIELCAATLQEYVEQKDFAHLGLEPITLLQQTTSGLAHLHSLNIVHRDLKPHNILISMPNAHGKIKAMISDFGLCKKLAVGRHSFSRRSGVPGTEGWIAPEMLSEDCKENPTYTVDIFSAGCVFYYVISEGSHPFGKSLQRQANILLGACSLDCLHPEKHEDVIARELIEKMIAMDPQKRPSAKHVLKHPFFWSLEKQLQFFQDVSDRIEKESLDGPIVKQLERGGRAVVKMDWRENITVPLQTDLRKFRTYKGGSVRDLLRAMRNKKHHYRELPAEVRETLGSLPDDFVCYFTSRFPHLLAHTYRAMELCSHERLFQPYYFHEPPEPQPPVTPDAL

Q: With `O=C1Nc2c(cc([N+](=O)[O-])c3c2CCCC3)C1=NO` [Compound 5d, 3-(Hydroxyimino)-5-nitro-1,3,6,7,8,9-hexahydro-2H-benzo[g]indol-2-one] as the compound, how does the inhibition at 10 µM (MET) read?
A: Its inhibition at 10 µM is 63%.

Q: And the inhibition at 10 µM (TGFBR2)?
A: Its inhibition at 10 µM is 24%.

Q: And the inhibition at 10 µM (DRAK2)?
A: Its inhibition at 10 µM is 78%.

Q: And the inhibition at 10 µM (PYK2)?
A: The inhibition at 10 µM was 0%.

Q: And the inhibition at 10 µM (p38-σ)?
A: The inhibition at 10 µM was 7%.

Q: What about the inhibition at 10 µM (CDK7) of the same compound?
A: Its inhibition at 10 µM is 95.8%.

Q: What about the inhibition at 10 µM (ABL1 (Y253F)-P) of the same compound?
A: The inhibition at 10 µM was 41%.

Q: What about the inhibition at 10 µM [1] of the same compound?
A: The inhibition at 10 µM was 60%.

Q: What about the inhibition at 10 µM (TSSK3) of the same compound?
A: The inhibition at 10 µM was 61%.

Q: What about the inhibition at 10 µM (TTK) of the same compound?
A: Its inhibition at 10 µM is 95.6%.

Q: And the inhibition at 10 µM (ABL1 (Q252H)-non-P)?
A: Its inhibition at 10 µM is 55%.

Q: And the inhibition at 10 µM (FLT3 (K663Q))?
A: The inhibition at 10 µM was 5%.

Q: What about the inhibition at 10 µM (MEK6) of the same compound?
A: The inhibition at 10 µM was 3%.

Q: And the inhibition at 10 µM (CSF1R-autoinhibited)?
A: The inhibition at 10 µM was 37%.

Q: What about the inhibition at 10 µM (SGK) of the same compound?
A: The inhibition at 10 µM was 91.1%.

Q: And the inhibition at 10 µM (CAMKK1)?
A: Its inhibition at 10 µM is 9%.

Q: And the inhibition at 10 µM (CAMK4)?
A: Its inhibition at 10 µM is 7%.

Q: What about the inhibition at 10 µM (CIT) of the same compound?
A: Its inhibition at 10 µM is 92.8%.

Q: What about the inhibition at 10 µM (JAK1 (JH1domain-cat.)) of the same compound?
A: The inhibition at 10 µM was 0%.

Q: What about the inhibition at 10 µM (YSK1) of the same compound?
A: The inhibition at 10 µM was 10%.

Q: What about the inhibition at 10 µM (PLK1) of the same compound?
A: The inhibition at 10 µM was 71%.

Q: What about the inhibition at 10 µM (MLCK) of the same compound?
A: The inhibition at 10 µM was 11%.

Q: What about the inhibition at 10 µM (RET (V804M)) of the same compound?
A: The inhibition at 10 µM was 4%.

Q: What about the inhibition at 10 µM (FLT3 (D835Y)) of the same compound?
A: The inhibition at 10 µM was 54%.

Q: And the inhibition at 10 µM (PRKX)?
A: The inhibition at 10 µM was 0%.

Q: And the inhibition at 10 µM (ABL1 (Q252H)-P)?
A: Its inhibition at 10 µM is 47%.

Q: And the inhibition at 10 µM (NEK11)?
A: The inhibition at 10 µM was 46%.

Q: What about the inhibition at 10 µM (SLK) of the same compound?
A: Its inhibition at 10 µM is 63%.

Q: And the inhibition at 10 µM (PFTAIRE2)?
A: Its inhibition at 10 µM is 6%.

Q: And the inhibition at 10 µM (ERN1)?
A: The inhibition at 10 µM was 29%.

Q: What about the inhibition at 10 µM (TLK1) of the same compound?
A: Its inhibition at 10 µM is 19%.

Q: And the inhibition at 10 µM (LATS1)?
A: Its inhibition at 10 µM is 0%.

Q: What about the inhibition at 10 µM (MLK2) of the same compound?
A: The inhibition at 10 µM was 4%.

Q: What about the inhibition at 10 µM (NDR2) of the same compound?
A: Its inhibition at 10 µM is 13%.

Q: And the inhibition at 10 µM (NEK4)?
A: Its inhibition at 10 µM is 1%.

Q: What about the inhibition at 10 µM (LIMK1) of the same compound?
A: Its inhibition at 10 µM is 0%.

Q: And the inhibition at 10 µM (CAMK1D)?
A: Its inhibition at 10 µM is 65%.

Q: What about the inhibition at 10 µM (BRK) of the same compound?
A: The inhibition at 10 µM was 0%.

Q: And the inhibition at 10 µM (LOK)?
A: The inhibition at 10 µM was 73%.
